This experiment relates to Human recombinant GST-PI3K. Put plainly: PI3K induced-lipid phosphorylation, neomycin-SPA scintillation proximity assay. Format: biochemical. As to conditions: Human recombinant GST-PI3K, SPA. The source says:
The efficacy of compounds of the invention in inhibiting the PI3K induced-lipid phosphorylation may be tested in the following binding assay. The assay combines the scintillation proximity assay technology (SPA, Amersham) with the capacity of neomycin (a polycationic antibiotic) to bind phospholipids with high affinity and specificity. The Scintillation Proximity Assay is based on the properties of weakly emitting isotopes (such as ^3H, ^125I, ^33P). Coating SPA beads with neomycin allows the detection of phosphorylated lipid substrates after incubation with recombinant PI3K and radioactive ATP in the same well, by capturing the radioactive phospholipids to the SPA beads through their specific binding to neomycin.
To a 96 wells MTP containing 10 μL of the test compound of Formula (I) (solubilized in 10% DMSO; […]), the following assay components are added: 1) 10 μL of lipid micelles 2) 20 μL of Kinase buffer ([^33P]γATP162 μM/300 nCi, MgCl2 2.5 mM, DTT 2.5 mM, Na3VO4 25 uM in Hepes 40 mM, pH 7.4) and 3) 10 μL (100 ng) of Human recombinant GST-PI3K (in Hepes 40 mM, pH 7.4, ethylenglycol 4%). After incubation at room temperature for 120 minutes, with gentle agitation, the reaction is stopped by addition of 200 μL of a solution containing 250 μg of neomycin-coated PVT SPA beads, ATP 60 mM and EDTA 6.2 mM in PBS. The assay is further incubated at room temperature for 60 minutes with gentle agitation to allow binding of phospholipids to neomycin-SPA beads. After precipitation of the neomycin-coated PVT SPA beads for 5 minutes at 1500×g, radioactive PtdIns(3)P is quantified by scintillation counting in a Wallac MicroBeta™ plate counter.
The values indicated in Table I below refer to the IC50 (μM) with respect to PI3K, i.e. the amount necessary to achieve 50% inhibition of said target. Said values show a considerable inhibitory potency of quinoxaline compounds with regard to PI3K.
In general terms: Scintillation proximity formats need no separation of bound from free tracer.

Consider `COc1ccc(CCO)c(Nc2nc3ccccc3nc2NS(=O)(=O)c2ccc(F)cc2)c1` [Example 36, 4-Fluoro-N-(3-{[2-(2-hydroxyethyl)-5-methoxyphenyl]amino}quinoxalin-2-yl)benzenesulfonamide], for which the IC50 stood at 23 nM.

In the case of `COc1ccc(CCO)c(Nc2nc3ccccc3nc2NS(C)(=O)=O)c1` [Example 37, N-(3-{[2-(2-Hydroxyethyl)-5-methoxyphenyl]amino}quinoxalin-2-yl)methanesulfonamide], the concentration for half-maximal inhibition (IC50) was 95 nM.

In the case of `CCS(=O)(=O)Nc1nc2ccccc2nc1Nc1cc(OC)ccc1CCO` [Example 38, N-(3-{[2-(2-Hydroxyethyl)-5-methoxyphenyl]amino}quinoxalin-2-yl)ethanesulfonamide], the half-maximal inhibitory concentration (IC50) was found to be 60 nM.

Take `CCCS(=O)(=O)Nc1nc2ccccc2nc1Nc1cc(OC)ccc1CCO` [Example 39, N-(3-{[2-(2-Hydroxyethyl)-5-methoxyphenyl]amino}quinoxalin-2-yl)propane-1-sulfonamide]: the IC50 amounted to 44 nM.

In the case of `COc1ccc(CCS(C)(=O)=O)c(Nc2nc3ccccc3nc2NS(=O)(=O)c2cn(C)cn2)c1` [Example 40, N-[3-({5-Methoxy-2-[2-(methylsulfonyl)ethyl]phenyl}amino)quinoxalin-2-yl]-1-methyl-1H-imidazole-4-sulfonamide], the IC50 was found to be 84 nM.

Regarding `COC(=O)CCc1ccc(S(=O)(=O)Nc2nc3ccccc3nc2Nc2cc(OC)ccc2CCO)cc1` [Example 41, Methyl 3-(4-{[(3-{[2-(2-hydroxyethyl)-5-methoxyphenyl]amino}quinoxalin-2-yl)amino]sulfonyl}phenyl)propanoate], the 50% inhibitory concentration (IC50) worked out at 70 nM.

As to `COc1ccc(CCCO)c(Nc2nc3ccccc3nc2NS(=O)(=O)c2c(C)noc2C)c1` [Example 42, N-(3-{[2-(3-Hydroxpropyl)-5-methoxyphenyl]amino}quinoxalin-2-yl)-3,5-dimethylisoxazole-4-sulfonamide], the IC50 was found to be 130 nM.

In the case of `COc1ccc(CCO)c(Nc2nc3ccccc3nc2NS(=O)(=O)c2c(C)noc2C)c1` [Example 43], the IC50 was 286 nM.

Take `COc1ccc(CCS(C)(=O)=O)c(Nc2nc3ccccc3nc2NS(C)(=O)=O)c1` [Example 44, N-[3-({5-Methoxy-2-[2-(methylsulfonyl)ethyl]phenyl}amino)quinoxalin-2-yl]methanesulfonamide]: the IC50 stood at 200 nM.

For the compound `COc1ccc(CCO)c(Nc2nc3ccccc3nc2NS(=O)(=O)C2CCCCC2)c1` [Example 45, N-(3-{[2-(2-Hydroxyethyl)-5-methoxyphenyl]amino}quinoxalin-2-yl) cyclohexanesulfonamide], the IC50 is 57 nM.

On to `COc1ccc(CCCO)c(Nc2nc3ccccc3nc2NS(C)(=O)=O)c1` [Example 46, N-(3-{[2-(3-Hydroxypropyl)-5-methoxyphenyl]amino}quinoxalin-2-yl)methanesulfonamide], for which the IC50 amounted to 64 nM.

For the compound `COc1ccc(CCCO)c(Nc2nc3ccccc3nc2NS(=O)(=O)c2cn(C)c(CN(C)C)n2)c1` [Example 47, 2-[(Dimethylamino)methyl]-N-(3-{[2-(3-hydroxypropyl)-5-methoxyphenyl]amino}quinoxalin-2-yl)-1-methyl-1H-imidazole-4-sulfonamide], the concentration for half-maximal inhibition (IC50) turned out to be 28 nM.

In the case of `CCS(=O)(=O)Nc1nc2ccccc2nc1Nc1cc(OC)ccc1CCCO` [Example 48, N-(3-{[2-(3-Hydroxypropyl)-5-methoxyphenyl]amino}quinoxalin-2-yl)ethanesulfonamide], the IC50 is 59 nM.

Turning to `CCCS(=O)(=O)Nc1nc2ccccc2nc1Nc1cc(OC)ccc1CCCO` [Example 49, N-(3-{[2-(3-Hydroxypropyl)-5-methoxyphenyl]amino}quinoxalin-2-yl)propane-1-sulfonamide], the IC50 was 49 nM.

On to `COc1ccc(CCCO)c(Nc2nc3ccccc3nc2NS(=O)(=O)C(C)C)c1` [Example 50, N-(3-{[2-(3-Hydroxyproxyl)-5-methoxypheyl]amino}quinoxalin-2-yl)propane-2-sulfonamide], for which the IC50 turned out to be 72 nM.

Turning to `CCS(=O)(=O)Nc1nc2ccccc2nc1Nc1cc(OC)ccc1CCS(C)(=O)=O` [Example 51, N-[3-({5-Methoxy-2-[2-(methylsulfonyl)ethyl]phenyl}amino)quinoxalin-2-yl]ethanesulfonamide], the IC50 turned out to be 88 nM.

Turning to `COc1ccc(CCS(C)(=O)=O)c(Nc2nc3ccccc3nc2NS(=O)(=O)C(C)C)c1` [Example 52, N-[3-({5-Methoxy-2-[2-(methylsulfonyl)ethyl]phenyl}amino)quinoxalin-2-yl]propane-2-sulfonamide], the IC50 is 160 nM.

On to `CCCS(=O)(=O)Nc1nc2ccccc2nc1Nc1cc(OC)ccc1CCS(C)(=O)=O` [Example 53, N-[3-({5-Methoxy-2-[2-(methylsulfonyl)ethyl]phenyl}amino)quinoxalin-2-yl]propane-1-sulfonamide], for which the IC50 is 87 nM.

Regarding `COc1ccc(CCS(C)(=O)=O)c(Nc2nc3ccccc3nc2NS(=O)(=O)c2c(C)noc2C)c1` [Example 54, N-[3-({5-Methoxy-2-[2-(methylsulfonyl)ethyl]phenyl}amino)quinoxalin-2-yl]-3,5-dimethylisoxazole-4-sulfonamide], the concentration for half-maximal inhibition (IC50) worked out at 190 nM.

For `COc1ccc(CCS(C)(=O)=O)c(Nc2nc3ccccc3nc2NS(=O)(=O)c2ccccc2)c1` [Example 55, N-[3-({5-Methoxy-2-[2-(methylsulfonyl)ethyl]phenyl}amino)quinoxalin-2-yl]benzenesulfonamide], the IC50 amounted to 42 nM.

Regarding `COc1ccc(CCO)c(Nc2nc3ccccc3nc2NS(=O)(=O)C2CCS(=O)(=O)C2)c1` (stereo not shown) [Example 56], the IC50 was 86 nM.

As for `COc1ccc(CCS(C)(=O)=O)c(Nc2nc3ccccc3nc2NS(=O)(=O)CCCSC)c1` [Example 57, N-[3-({5-Methoxy-2-[2-(methylsulfonyl)ethyl]phenyl}amino)quinoxalin-2-yl]-3-(methylthio)propane-1-sulfonamide], the IC50 was found to be 140 nM.

Turning to `COc1ccc(CCO)c(Nc2nc3ccccc3nc2NS(=O)(=O)CCCSC)c1` [Example 58, N-(3-{[2-(2-Hydroxyethyl)-5-methoxyphenyl]amino}quinoxalin-2-yl)-3-(methylthio)propane-1-sulfonamide], the IC50 turned out to be 75 nM.

As for `COc1ccc(CCS(C)(=O)=O)c(Nc2nc3ccccc3nc2NS(=O)(=O)CCCS(C)(=O)=O)c1` [Example 59, N-[3-({5-Methoxy-2-[2-(methylsulfonyl)ethyl]phenyl}amino)quinoxalin-2-yl]-3-(methylsulfonyl)propane-1-sulfonamide], the IC50 came to 350 nM.

For the compound `COc1ccc(CCCO)c(Nc2nc3ccccc3nc2NS(=O)(=O)CCCS(C)(=O)=O)c1` [Example 60, N-(3-{[2-(3-Hydroxypropyl)-5-methoxyphenyl]amino}quinoxalin-2-yl)-3-(methylsulfonyl)propane-1-sulfonamide], the IC50 was found to be 120 nM.

For the compound `COc1ccc(CCO)c(Nc2nc3ccccc3nc2NS(=O)(=O)CCCS(C)(=O)=O)c1` [Example 61, N-(3-{[2-(2-Hydroxyethyl)-5-methoxyphenyl]amino}quinoxalin-2-yl)-3-(methylsulfonyl)propane-1-sulfonamide], the IC50 came to 120 nM.

In the case of `COCCc1ccc(OC)cc1Nc1nc2ccccc2nc1NS(=O)(=O)c1cn(C)cn1` [Example 62, N-(3-{[5-Methoxy-2-(2-methoxyethyl)phenyl]amino}quinoxalin-2-yl)-1-methyl-1H-imidazole-4-sulfonamide], the half-inhibitory concentration (IC50) came to 83 nM.

`COc1ccc(CCCO)c(Nc2nc3ccccc3nc2NS(=O)(=O)C2CCS(=O)(=O)C2)c1` (stereo not shown) [Example 63, N-(3-{[2-(3-Hydroxypropyl)-5-methoxyphenyl]amino}quinoxalin-2-yl)tetrahydrothiophene-3-sulfonamide 1,1-dioxide]: the IC50 was determined as 130 nM.

Turning to `COc1ccc(S(=O)(=O)NCCO)c(Nc2nc3ccccc3nc2NS(=O)(=O)CCCS(C)(=O)=O)c1` [Example 64, N-(2-Hydroxyethyl)-4-methoxy-2-{[3-({[3-(methylsulfonyl)propyl]sulfonyl}amino)quinoxalin-2-yl]amino}benzenesulfonamide], the IC50 amounted to 300 nM.

As for `COc1ccc(CCS(C)(=O)=O)c(Nc2nc3ccccc3nc2NS(=O)(=O)c2cn(C)c(CN(C)C)n2)c1` [Example 65, 2-[(Dimethylamino)methyl]-N-[3-({5-methoxy-2-[2-(methylsulfonyl)ethyl]phenyl}amino)quinoxalin-2-yl]-1-methyl-1H-imidazole-4-sulfonamide], the concentration for half-maximal inhibition (IC50) amounted to 87 nM.

On to `COc1ccc(CCCO)c(Nc2nc3ccccc3nc2NS(=O)(=O)C2CCN(C(=O)OCc3ccccc3)CC2)c1` [Example 66, Benzyl 4-{[(3-{[2-(3-hydroxypropyl)-5-methoxyphenyl]amino}quinoxalin-2-yl)amino]sulfonyl}piperidine-1-carboxylate], for which the half-maximal inhibitory concentration (IC50) amounted to 720 nM.

A word on the IC50: it is the concentration that inhibits the measured activity by half.

Source of the values: US8614215B2, “Quinoxaline inhibitors of phosphoinositide-3-kinases (PI3Ks)” (Merck Serono SA, priority 2007, dated 2013).
